Assay results as given in US6514954B1, “Pesticidal compositions” (priority 1997, dated 2003).

System: Myzus persicae
Assay: Example B6: action against Myzus persicae (leaf circle bioassay, sprayed Capsicum plants)
Format: in vivo
Details: 96 h, read-out: Action % (mortality of nymphs)
From the text: A synergistic effect is always present if the action EA of the combination of an active compound of the formula (A) with one of the active compounds (I) to (XXXI) is greater than the sum of the action of the active compounds applied individually:
However, the pesticidal action EA to be expected for a given combination of two pesticides can also be calculated as follows (cf. COLBY, S. R., “Calculating synergistic and antagonistic response of herbicide combinations”, Weeds 15, Pages 20-22, 1967): [formula]
X=Percent mortality on treatment with the compound of the formula (A) at a rate of application of p kg per hectare compared with the untreated control (=0%).
Y=Percent mortality on treatment with a compound (I) to (XXXI) at a rate of application of q kg per hectare compared with the untreated control.
EA=Expected pesticidal action (percent mortality compared with the untreated control) after treatment with the compound of the formula (A) and a compound (I) to (XXXI) at a rate of application of p+q kg of active compound per hectare.
If the action actually observed is greater than the expected value EA, synergism exists.
Action Against Myzus persicae
Capsicum plants (Capsicum annuum L.) 6 weeks old are sprayed with an aqueous emulsion spray liquor which comprises the individual compounds and mixtures according to the following table. The plants were placed in a greenhouse until determination of the activity.
The activity against Myzus persicae was measured in bioassays. 2-4 hours after application, circles of leaf are stamped out, placed with the upper side down on agar in Petri dishes and infested with an M. persicae mixed population consisting of 40-50 non-synchronous individuals. A total of 9 circles of leaf per concentration are used. The Petri dishes are covered with a cotton wool filter, closed with a plastic lid and placed in a climatically controlled chamber for plants. One day after infestation, the circles of leaf are cleaned of adults, skins and nymphs, so that only 25-40 nymphs laid overnight remain per circle of leaf. Four days after infestation, the mortality is determined by counting the dead and living nymphs. The tests are carried out 3 times. The results shown in the table are the average values of the tests.

Compound: CC1(C)C(C=C(Cl)Cl)C1C(=O)OC(C#N)c1cccc(Oc2ccccc2)c1 (racemic) [Cypermethrin high-cis, (RS)-α-cyano-3-phenoxybenzyl (1RS)-cis-trans-3-(2,2-dichlorvinyl)-1,1-dimethylcyclo-propanecarboxylate]
- mortality at 600 ppm (Conc. 600 ppm, four days after infestation, average of 3 tests): 8.2%

Compound: CN1COCN(Cc2cnc(Cl)s2)C1=N[N+](=O)[O-] [A.5, 5-(2-chlorothiazol-5-ylmethyl)-3-methyl-4-nitroimino-perhydro-1,3,5-oxadiazine]
- mortality at 0.1 ppm (Conc. 0.1 ppm, four days after infestation, average of 3 tests): 5.9%
- mortality at 0.2 ppm (Conc. 0.2 ppm, four days after infestation, average of 3 tests): 35%

Compound: CCCSP(=O)(OCC)Oc1ccc(Br)cc1Cl (centres unmarked) [Profenofos, O-4-bromo-2-chlorophenyl O-ethyl S-propyl phosphorothioate]
- mortality at 35 ppm: 12.3%

Compound: CC1=NNC(=O)N(N=Cc2cccnc2)C1 [Pymetrozine, 2,3,4,5-tetrahydro-3-oxo-4-[(pyridin-3-yl)-methyleneamino]-6-methyl-1,2,4-triazine]
- mortality at 0.3 ppm (Conc. 0.3 ppm, four days after infestation, average of 3 tests): 38.4%
